In data set [1] the test system is FAP-positive SK-Mel-187 melanoma xenograft. More on the design: method as in PMID 25633335. Conditions: in vitro; cited from earlier work.
Data set [2] relates to FAP. Put plainly: FAP inhibition reported by Jansen et al. (literature). Type of data set: biochemical. The following applies: from literature IC50 values.
Data set [3] relates to FAP. Conditions: cited from earlier work.
Another data set concerns DPPs. The following applies: cited from earlier work.
The test system of a further data set is PREP. The following applies: cited from earlier work.
Another data set concerns bone and muscle. Details: method as in PMID 30850501, PMID 32332144, PMID 33721173, PMID 23712432, PMID 34620730. Conditions: mice; cited from earlier work.

Broadly, the IC50 is the concentration that gives 50% inhibition.

`O=C(NCC(=O)N1CCC[C@H]1B(O)O)c1ccc([125I])cc1` [[^125I]MIP-1232]: the “accumulation in FAP-positive SK-Mel-187 melanoma xenograft” value in data set [1] is “strongly accumulate”.
As for `O=C(NCC(=O)N1CCC[C@H]1B(O)O)c1ccnc2ccccc12` [N-(4-quinolinoyl)-Gly-boroPro], in the data set on FAP [2], the “fold higher FAP binding affinity than N-(4-quinolinoyl)-Gly-(2-cyanopyrrolidine)” value was determined as 2.8 fold. In addition, in the data set on FAP [3], the IC50 was 3.7 ± 0.2 nM. Moreover, the “selectivity over DPPs” value in the data set with DPPs is > 10^3. The “selectivity over PREP” value in the data set with PREP is ~ 3 fold.
Consider `N#C[C@@H]1CC(F)(F)CN1C(=O)CNC(=O)c1ccnc2ccc(OCCCN3CCN(C(=O)CN4CCN(CC(=O)[O-])CCN(CC(=O)[O-])CCN(CC(=O)[O-])CC4)CC3)cc12.[68Ga+3]` [[^68Ga]Ga-FAPI-04], for which, in the data set with bone and muscle, the “uptake in the bone and muscle” value was “high uptake”.

(Values after publication PMC10303363, “Synthesis and Preclinical Evaluation of Novel ^68Ga-Labeled (R)-Pyrrolidin-2-yl-boronic Acid-Based PET Tracers for Fibroblast Activation Protein-Targeted Cancer Imaging” (Pharmaceuticals, 2023).)
